Source: paper PMC6017461, “Multi-Target Anti-Alzheimer Activities of Four Prenylated Compounds from Psoralea Fructus” (Molecules : A Journal of Synthetic Chemistry and Natural …, 2018)

Biological target: T1, amyloid β-peptide 42 (Aβ42) (Homo sapiens, UniProt P05067)
T1 construct: gene APP; synthetic human Aβ42
Experiment: Thioflavin T fluorescence aggregation assay with synthetic Aβ[…], positive control
Format: biochemical

T1 sequence (P05067 672-713 limits assumed): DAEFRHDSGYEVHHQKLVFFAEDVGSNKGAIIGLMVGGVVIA

## COc1cc(/C=C/C(=O)CC(=O)/C=C/c2ccc(O)c(OC)c2)ccc1O [curcumin]
  Thioflavin T fluorescence aggregation assay with synthetic Aβ42, positive contro: which were comparable to the positive control curcumin
